# Experimental data from patent publication US6482800B1, “Methods to stimulate angiogenesis” (The University of Southern California, priority 1998, dated 2002).
# Entries after “also recorded” stand apart in the source; their conditions may differ. Square brackets hold non-standard residues; d marks the D form. Ends that are not written are not given here. Nle = CCCC[C@H](N)C(=O)O
# Experiments:
# [1] = test system: Ischemic Myocardial Tissue; assay: Formation of collateral circulation in ischemic myocardial tissue after coronary artery ligation; assay type: in vivo, Rabbits; details: rabbit, peptide 1 mg/ml; for Number of blood vessels present in the infarct site, Mean ± SEM: left circumflex and left anterior descending arteries ligated, 0.05 ml in Hydron vehicle injected in cardiac muscle, necropsy from day 7, microscopic examination; for Vascularization of the infarct site: 0.05 ml injected distal to coronary occlusion, versus vehicle
# Procedure: Rabbits underwent a surgical procedure under intramuscular anesthesia (Ketamine and Rompum) after shaving with animal clippers and preparation with betadine and isopropyl alcohol. A midline sternotomy was performed. After exposure of the pericardial sac, a three centimeter incision was made into the pericardium. After visualization of the epicardial surface, two coronary arteries, the left circumflex and the left anterior descending arteries, were exposed and ligated by 4-0 Vicryl suture. Vehicle (10% Hydron, 60% ethanol and 1% polyethylene glycol), with or without peptide (1 mg/ml, 0.05 ml) was injected in the cardiac muscle distal to the site of coronary occlusion. The sternum was then closed with 2-0 Silk. The muscle and skin were then closed with 3-0 Dexon II suture. Starting at 7 days after surgery, the animals were euthanized and necropsies performed. The number of blood vessels present in the infarct site was assessed grossly and by microscopic evaluation.
# [2] = Unspecified test of effectiveness of AII fragments
# AT2 receptor = target: T1, AT2 receptor (Homo sapiens, UniProt P50052); details: cited from earlier work
# T1 sequence (P50052 1-363): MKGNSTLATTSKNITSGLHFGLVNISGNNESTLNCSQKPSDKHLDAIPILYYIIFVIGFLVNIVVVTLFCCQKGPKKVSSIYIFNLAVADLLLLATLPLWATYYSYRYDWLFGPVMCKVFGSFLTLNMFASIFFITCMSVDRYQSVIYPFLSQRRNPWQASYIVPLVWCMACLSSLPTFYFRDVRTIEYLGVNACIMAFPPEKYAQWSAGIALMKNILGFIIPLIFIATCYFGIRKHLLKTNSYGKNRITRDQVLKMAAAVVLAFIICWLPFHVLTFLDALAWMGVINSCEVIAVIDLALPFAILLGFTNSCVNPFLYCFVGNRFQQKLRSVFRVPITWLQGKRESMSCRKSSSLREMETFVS
# rabbit corneal eye = rabbit corneal eye model; cited from earlier work
# [3] = test system: chick chorioallantoic membrane; details: chick chorioallantoic membrane model; cited from earlier work
# burn areas = assay: Partial thickness thermal injury model; assay type: in vivo, Hartley guinea pigs; details: 1 mg/ml peptide in 10% low-viscosity CMC, topical on burn; day 7
# [4] = test system: Living skin equivalent (LSE) graft tissue; assay: Engraftment of living skin equivalent (LSE) on full thickness skin excision; assay type: in vivo, Swiss nude mice; details: LSE soaked 15 minutes in 1.0 mg/ml peptide; day 7; compared to untreated LSE
# Procedure: Male Swiss nude mice (22-24 g) were anesthetized with an intramuscular injection of Ketaset/Rompun and a 1 cm×1 cm full thickness skin excision was made on their dorsal surface. Living skin equivalent (LSE) was placed in the defect and trimmed with microscissors so that no gap was observed between the edges of the mouse skin and the LSE. The mice were divided into 6 groups based upon the peptide tested: (0 [LRS-Dextrose], or 1.0 mg/ml AII or AII analogues, AII (1-7) [SEQ ID NO:4]; Ala4AIII [SEQ ID NO:18]; Pro3AII [SEQ ID NO:31]; and Ile8AII [SEQ ID NO: 42]; see Table 3) and the LSE was soaked for 15 minutes in lactated Ringers solution with 5% dextrose with or without peptides prior to placement. After the graft was placed, the dorsal surface of the mouse was covered by petrolatum-embedded gauze followed by two adhesive bandages. After recovery from anesthesia, the mice were returned to their individual cages and observed daily until euthanasia. The mice received intramuscular analgesia for the first three days after surgery. No mouse lost its bandages prior to necropsy or bandage removal on day 7. The mice were necropsied on day 7. At necropsy, the degree of graft take and the appearance of the grafted tissue was noted prior to placement of the biopsy in 10% buffered formalin in preparation for paraffin embedding and section for hematoxylin and eosin staining.
# rat kidneys = details: cited from earlier work
Substance,"Number of blood vessels present in the infarct site, Mean ± SEM [1]",Vascularization of the infarct site [1],further results
DR(nor)YIHP (DR[Nle]YIHP) [Analogue 9GD],21.2 ± 2.8,increase vascularization,–
Tyr-Ile-His-Pro-Phe (YIHPF) [AII(4-8)],–,–,Effectiveness (test not specified) [2]: not to be effective; also recorded: ineffective
DRPYIHP [Analogue 2GD],31.2 ± 5.62,increase vascularization,–
DRVAIHP [Analogue 1GD],23.4 ± 8.6,increase vascularization,–
DRKYIHP [Analogue 5GD],24.55 ± 2.34,increase vascularization,–
His-Pro-Phe (HPF) [AII(6-8)],–,–,Effectiveness (test not specified) [2]: not to be effective
Asp-Arg-Val-Tyr-Ile-His-Pro-Phe (DRVYIHPF) [AII],–,–,Affinity for AT2 relative to AT1 (AT2 receptor): 100 times
Asp-Arg-Val-Tyr-Ile-His-Pro-Phe [AII],29.8 ± 12.3,increase vascularization,"Angiogenic activity (rabbit corneal eye): angiogenic; Angiogenic activity [3]: angiogenic; Blood flow response (angiogenesis) after thermal injury, compared to control (burn areas): increased blood flow response compared to control; Angiogenesis (vascular channel formation) in graft tissue [4]: increased; Endothelial cell production in graft tissue [4]: increased; Activation of collateral circulation via preformed blood vessels (rat kidneys): activate collateral circulation"
Asp-Arg-Val-Tyr-Ile-His-Pro (DRVYIHP) [AII(1-7)],80.6 ± 4.5,increase vascularization,–
